# pKd: −log10 of the molar value.
# What was measured:
# EphA2 [1] = molecular target: T1, EphA2 (Homo sapiens (Human), UniProt P29317); assay: Binding affinity to EphA2 by microscale thermophoresis (MST); details: for pKd: towards EphA2
# Source text: The binding affinities of the compounds to EphA2 were investigated by microscale thermophoresis (MST) (M. Jerabek-Willemsen et al., J. Mol. Struct. 2014, 1077, 101-113).
# EphB2 = EphB2 (Homo sapiens (Human), UniProt P29323); assay: Endogenous EphB2 tyrosine phosphorylation by ELISA in Colo-205 cell lysates; type: cell-based; details: for reduction of EphB2 phosphorylation: at 2 μM
# Chain of EphB2 (P29323 19-1055): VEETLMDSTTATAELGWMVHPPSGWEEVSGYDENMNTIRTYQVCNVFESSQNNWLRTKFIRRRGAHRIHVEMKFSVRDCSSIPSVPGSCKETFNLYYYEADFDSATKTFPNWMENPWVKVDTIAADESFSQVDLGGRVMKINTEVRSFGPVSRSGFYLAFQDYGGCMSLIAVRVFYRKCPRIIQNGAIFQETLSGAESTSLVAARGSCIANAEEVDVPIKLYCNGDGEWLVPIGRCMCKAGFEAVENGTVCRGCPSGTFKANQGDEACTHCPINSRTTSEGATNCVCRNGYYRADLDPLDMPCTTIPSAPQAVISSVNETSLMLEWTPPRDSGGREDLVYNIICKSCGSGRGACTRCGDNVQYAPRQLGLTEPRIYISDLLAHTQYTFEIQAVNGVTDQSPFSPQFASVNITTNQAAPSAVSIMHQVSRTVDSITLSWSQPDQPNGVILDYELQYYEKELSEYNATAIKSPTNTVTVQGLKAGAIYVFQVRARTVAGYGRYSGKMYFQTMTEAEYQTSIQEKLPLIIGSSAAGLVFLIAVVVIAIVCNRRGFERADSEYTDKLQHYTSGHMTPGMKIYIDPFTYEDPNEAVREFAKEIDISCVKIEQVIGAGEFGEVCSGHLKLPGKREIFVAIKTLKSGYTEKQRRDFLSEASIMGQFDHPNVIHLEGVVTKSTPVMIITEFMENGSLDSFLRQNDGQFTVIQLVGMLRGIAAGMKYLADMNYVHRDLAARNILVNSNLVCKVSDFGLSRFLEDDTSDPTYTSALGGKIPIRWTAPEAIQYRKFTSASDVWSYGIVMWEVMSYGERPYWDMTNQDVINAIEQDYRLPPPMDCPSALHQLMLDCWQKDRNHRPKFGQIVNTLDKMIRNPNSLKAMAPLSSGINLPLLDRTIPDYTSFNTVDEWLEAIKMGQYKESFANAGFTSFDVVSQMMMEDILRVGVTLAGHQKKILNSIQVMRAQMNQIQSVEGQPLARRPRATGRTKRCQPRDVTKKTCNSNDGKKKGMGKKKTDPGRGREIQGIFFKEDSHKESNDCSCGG
# Method: (§1) ELISA. ELISA plates (ThermoFisher Scientific, Immulon 4HBX, 3855) were coated overnight at 4° C. with capture antibody 75 ng/well in PBS, and blocked with 5% BSA (Sigma-Aldrich, St. Louis, MO) in PBS for two hours at room temperature. Capture antibodies for EphB4 was goat polyclonal antibody (R&D Systems AF3038); for EphA2 was goat polyclonal antibody (R&D Systems AF3035); 10 ug of cell lysate was applied to the ELISA well for two hours at room temperature. The amount of tyrosine phosphorylation was measured with pTyr-HRP antibody (R&D Systems, HAM1676). The ELISA was developed with 3,3′,5,5′-Tetramethylbenzidine (TMB) (ThermoFisher Scientific, 7588927) for 15 minutes and stopped with 1M H2SO4 (Sigma-Aldrich, 258105). Absorbance at 450 nm was measured using POLARstar Optima plate reader (BMG Labtech, Cary, NC). All conditions were tested in duplicate. pEphB2 was measured by ELISA (Ray Biotech, PEL-EphB2-Y) according to the manufacturer's recommendations.
# SW620 cells = assay: Cleaved caspase-3 immunofluorescence microscopy in colorectal cancer cells (SW620); type: cell-based, human; details: 72 hours
# Method: Cell viability was also measured by detection of cell-associated cleaved caspase-3. Cells were grown on gelatin-coated glass chamber slides, fixed in 4% paraformaldehyde, immune-stained with rabbit monoclonal antibody to cleaved Caspase 3 (1:100 Cell Signaling Technology) followed by Alexa Fluor 488-conjugated anti-rabbit IgG (1:400 Invitrogen) and mounted with Vectastain containing DAPI (Vector Laboratories). The slides were imaged through a Zeiss LSM780 confocal microscope. Image quantification (cleaved Caspase-3^+ nucleiltotal nuclei) was performed by CellProfiler software.
# LC3B [2] = assay: LC3B autophagy marker by immunoblotting in HT-29 cells; type: cell-based, human; details: for LC3B accumulation in cells treated with 1 μM NVP or NVP-Iso: spautin 5 μM, 3-MA 5 mM, chloroquine 10 μM
# Method: Western blotting. Protein lysates were separated by SDS-PAGE and then transferred to a nitrocellulose membrane. After blocking, membranes were incubated overnight with antibodies to LC3 (rabbit Monoclonal antibody, Cell Signaling).
# EphA2 [3] = molecular target: T1, EphA2; assay: Endogenous EphA2 tyrosine phosphorylation by ELISA in RKO cell lysates; type: cell-based; details: for reduction of EphA2 phosphorylation: at 2 μM
# Method: as §1
# EphB4 = EphB4 (Homo sapiens (Human), UniProt P54760); assay: Endogenous EphB4 tyrosine phosphorylation by ELISA in HT29 cell lysates; type: cell-based; details: for reduction of EphB4 phosphorylation: at 2 μM
# Chain of EphB4 (P54760 16-987): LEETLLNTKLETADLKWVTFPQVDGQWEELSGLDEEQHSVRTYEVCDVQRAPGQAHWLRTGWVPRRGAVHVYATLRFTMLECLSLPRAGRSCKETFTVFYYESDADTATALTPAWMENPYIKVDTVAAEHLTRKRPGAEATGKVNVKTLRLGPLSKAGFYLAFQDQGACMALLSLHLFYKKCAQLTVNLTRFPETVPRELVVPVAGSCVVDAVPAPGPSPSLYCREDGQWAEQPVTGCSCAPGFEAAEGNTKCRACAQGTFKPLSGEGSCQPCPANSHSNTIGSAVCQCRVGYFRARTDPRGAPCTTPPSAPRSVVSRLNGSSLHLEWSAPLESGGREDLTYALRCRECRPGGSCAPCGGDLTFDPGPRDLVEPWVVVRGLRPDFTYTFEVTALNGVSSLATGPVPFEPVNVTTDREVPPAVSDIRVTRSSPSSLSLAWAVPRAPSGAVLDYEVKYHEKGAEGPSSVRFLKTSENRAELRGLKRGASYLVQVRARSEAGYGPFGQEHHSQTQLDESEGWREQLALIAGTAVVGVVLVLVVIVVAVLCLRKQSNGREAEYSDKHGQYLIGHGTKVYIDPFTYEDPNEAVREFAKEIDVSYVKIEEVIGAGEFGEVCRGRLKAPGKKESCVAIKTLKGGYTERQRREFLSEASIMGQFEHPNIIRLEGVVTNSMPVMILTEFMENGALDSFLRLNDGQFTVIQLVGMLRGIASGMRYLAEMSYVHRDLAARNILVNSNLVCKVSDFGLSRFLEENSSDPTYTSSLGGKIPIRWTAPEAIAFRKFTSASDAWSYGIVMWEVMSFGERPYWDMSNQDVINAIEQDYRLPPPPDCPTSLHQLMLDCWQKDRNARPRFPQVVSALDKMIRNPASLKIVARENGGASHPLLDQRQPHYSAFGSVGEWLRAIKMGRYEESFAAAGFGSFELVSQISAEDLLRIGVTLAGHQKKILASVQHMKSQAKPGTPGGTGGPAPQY
# Method: as §1
# SW620 = assay: Cell cycle analysis by flow cytometry in colorectal cancer cells (SW620); type: cell-based, human; details: 72 hours; compared to control and NVP/NVP-Iso
# Method: Cell cycle was assessed by flow cytometry. Adherent cells were harvested, washed with PBS and fixed for 30 minutes in cold 70% ethanol at 4° C. Cells were washed twice with PBS, treated with 2.5 μg/mL RNaseA (ThermoFisher, 12091039) for 30 minutes at room temperature, and then stained with 10 μg propidium iodide for 15 minutes prior to analysis performed on FACS Canton (BD Biosciences; San Jose, CA) and cell cycled analyzed (FloJo software).
# [4] = tested on: colorectal carcinoma cell lines; assay: Proliferation of 10 colorectal carcinoma cell lines; type: cell-based, human; details: 1 μM, all colorectal carcinoma cell lines
# LC3 = LC3 autophagic puncta imaging in HT-29 cells transduced with fluorescent LC3; type: cell-based, human
# Method: Autophagy-related cell death was assessed by evaluation of LC3 autophagy-associated protein. The cells were first induced to stably express fluorescent pK (pHluorin-mKate2) LC3 by lentiviral infection. The cells were subsequently grown on glass coverslips (ThermoFisher, 12-545-81) until 50% confluent. Coverslips were washed with PBS −/−, fixed with 4% PEA for 15 minutes at room temperature, washed with TBS, mounted with DAPI-containing mounting media, allowed to harden overnight and sealed. Coverslips were imaged on a confocal Zeiss 780 microscope. Images were analyzed by CellProfiler using automatic thresholding to calculate the number of nuclei (DAPI staining) and the number of puncta. The results are expressed as the percent cells with two or more puncta. […] Monolayer cell confluency overtime was measured by IncuCyte HD (Essen BioSciences) imaging.
# Immunostaining and microscopy. […] Maximum intensity projections (Zen Software 2.3 Blue Edition; Carl Zeiss) were used for quantification using CellProfiler software (Kamentsky et al., Bioinformatics 2011, 27:1179-1180) with automatic thresholding. Integrated intensity of CD31 was measured. The percent Ki-67 positive cells was measured by calculating the number of Ki-67 positive cells/total number DAPI^+ nuclei. The area of cleaved Caspase-3 positive area/total area was calculated by CellProfiler with automatic threshold. […]
# HT-29 cells = assay: HT-29 cell proliferation (3H-thymidine incorporation); type: cell-based, human; details: co-treatment with autophagy inhibitor, 72 hours
# Method: Cell proliferation was measured by ^3H-Thymidine incorporation. Briefly, 0.5 μCi ^3H-Thymidine (Perkin Elmer, Waltham, MA; NET027WW001MC) was added to cells in 200 μL of culture media in a 96 well plate for 8-18 hours. Plates were frozen to stop cell growth, cells harvested onto glass fiber filters (Perkin Elmer, 1450-421) dried by microwave, wet with FiltronX liquid scintillation fluid (National Diagnostics, Atlanta, GA; LS-201) and incorporated radioactivity counted in a liquid scintillation counter (Perkin Elmer, MicroBeta-1450 or MicroBeta-2450). […] All lines were used for a maximum number of 10-15 passages over ˜4 years. All cell lines tested negative for mycoplasma (yearly) and MTBM (Molecular Testing of Biological Materials; tested once).
# LC3B [5] = assay: LC3B accumulation in SW620 cells; type: cell-based, human; details: pre-treatment 4 hours; spautin 5 μM, 3-MA 5 mM
# Method: Western blotting. Protein lysates were separated by SDS-PAGE and then transferred to a nitrocellulose membrane. After blocking, membranes were incubated overnight with antibodies to LC3 (rabbit Monoclonal antibody, Cell Signaling). After washing with TBS-T (TBS with 0.05 Tween-20), membranes were incubated with the HRP (Horseradish peroxidase)-linked secondary antibody (IgG donkey anti-rabbit IgG (NA934) (GE LifeSciences, Marlborough, MA). Blots were developed using ECL prime (GE LifeSciences, RPN2232) and digitally captured on an LAS4000 (GE LifeSciences). After stripping, the membrane was re-probed with a mouse monoclonal antibody to GAPDH (Santa Cruz) followed by a secondary IgG sheep anti-mouse IgG (NA931). Western blot bands were quantified using Fiji (Schindelin et al., 2012).
# HUVEC = HUVEC proliferation (specificity control); type: cell-based, human; details: 125-2000 nM
# MG63 = MG63 proliferation (specificity control); type: cell-based, human; details: 125-2000 nM
# T1 sequence (P29317 24-976): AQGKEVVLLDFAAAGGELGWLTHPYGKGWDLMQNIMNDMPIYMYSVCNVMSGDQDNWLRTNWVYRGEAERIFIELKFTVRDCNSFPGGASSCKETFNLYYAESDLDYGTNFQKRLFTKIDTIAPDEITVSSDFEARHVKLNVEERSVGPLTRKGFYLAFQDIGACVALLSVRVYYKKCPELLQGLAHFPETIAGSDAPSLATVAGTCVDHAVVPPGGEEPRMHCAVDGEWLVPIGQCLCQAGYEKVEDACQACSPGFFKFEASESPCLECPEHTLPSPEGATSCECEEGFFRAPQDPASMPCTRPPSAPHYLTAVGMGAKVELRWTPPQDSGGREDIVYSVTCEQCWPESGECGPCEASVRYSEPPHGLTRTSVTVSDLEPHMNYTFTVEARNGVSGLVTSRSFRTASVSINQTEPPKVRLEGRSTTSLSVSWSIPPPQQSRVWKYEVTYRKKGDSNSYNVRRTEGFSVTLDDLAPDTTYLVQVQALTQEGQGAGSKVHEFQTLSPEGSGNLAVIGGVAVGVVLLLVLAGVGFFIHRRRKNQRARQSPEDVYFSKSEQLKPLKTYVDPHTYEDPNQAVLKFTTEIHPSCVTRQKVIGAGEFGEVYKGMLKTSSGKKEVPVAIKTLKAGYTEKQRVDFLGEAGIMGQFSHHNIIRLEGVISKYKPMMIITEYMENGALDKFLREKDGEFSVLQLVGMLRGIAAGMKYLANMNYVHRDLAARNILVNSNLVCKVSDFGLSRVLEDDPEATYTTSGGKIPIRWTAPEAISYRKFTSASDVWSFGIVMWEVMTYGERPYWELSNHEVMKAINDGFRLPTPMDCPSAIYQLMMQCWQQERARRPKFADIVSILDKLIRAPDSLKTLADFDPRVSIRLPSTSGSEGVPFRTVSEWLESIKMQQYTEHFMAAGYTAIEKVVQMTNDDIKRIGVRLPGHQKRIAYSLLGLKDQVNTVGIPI
compound,measurement,setting,value
"Cc1ccc(C(=O)Nc2cccc(C(F)(F)F)c2)cc1Nc1nc(-c2cccnc2)nc2ccccc12 [@4, 4-Methyl-3-((2-(pyridin-3-yl)quinazolin-4-yl)amino)-N-(3-(trifluoromethyl)phenyl)benzamide]",pKd,EphA2 [1],7.07
Cc1cc(C(=O)Nc2cccc(C(F)(F)F)c2)ccc1Nc1nc(N2CC[C@H](O)C2)nc(-n2ccnc2)n1 [@12],pKd,EphA2 [1],6.88
"Cc1ccc(C(=O)Nc2cccc(C(F)(F)F)c2)cc1Nc1nc(-c2cncnc2)nc2c1cnn2C [@3, 4-Methyl-3-((1-methyl-6-(pyrimidin-5-yl)-1H-pyrazolo[3,4-d]pyrimidin-4-yl)amino)-N-(3-(trifluoromethyl)phenyl)benzamide]",inhibitory activity for p-EphB2 compared to NVP,EphB2; four hours treatment,comparable or only slightly reduced inhibitory activity
same,cleaved caspase-3 detection in treated cells,SW620 cells,only in a minority of cells
same,induction of autophagosome marker LC3B (immunoblotting),LC3B [2]; 72-hour incubation,failure
same,inhibitory activity for p-EphA2 compared to NVP,EphA2 [3]; four hours treatment,comparable or only slightly reduced inhibitory activity
same,inhibitory activity for p-EphB4 compared to NVP,EphB4; four hours treatment,comparable or only slightly reduced inhibitory activity
same,distribution of cells within the cell cycle,SW620,marked reduction of the proportion of cells within the G2M phase
"Cc1ccc(C(=O)Nc2cccc(C(F)(F)F)c2)cc1Nc1nc(-c2cccnc2)nc2ncccc12 [@5, 4-Methyl-3-((2-(pyridin-3-yl)pyrido[2,3-d]pyrimidin-4-yl)amino)-N-(3-(trifluoromethyl)phenyl)benzamide]",reduction of EphB2 phosphorylation,EphB2,marginal reduction
same,pKd,EphA2 [1],6.65
same,reduction of EphA2 phosphorylation,EphA2 [3],marginal reduction
same,reduction of EphB4 phosphorylation,EphB4,marginal reduction
Cc1cc(C(=O)Nc2cccc(C(F)(F)F)c2)ccc1Nc1nc(N2CCNCC2)nc(-n2ccnc2)n1 [@11],pKd,EphA2 [1],6.35
"Cc1ccc(C(=O)Nc2cccc(C(F)(F)F)c2)cc1Nc1nc(-c2cnccn2)nc2nn(C)cc12 [@2, 4-Methyl-3-((2-methyl-6-(pyrazin-2-yl)-2H-pyrazolo[3,4-d]pyrimidin-4-yl)amino)-N-(3-(trifluoromethyl)-phenyl)benzamide]",fold lower binding affinity towards EphA2,EphA2 [1]; compared with @1 and @3,44 fold
same,pKd,EphA2 [1],6.88
"CCN(CC)CCCC(C)Nc1ccnc2cc(Cl)ccc12 (centres unmarked) [chloroquine, Chloroquine]",LC3B accumulation in cells treated with 1 μM NVP or NVP-Iso,LC3B [2],enhanced the accumulation of LC3B
"Cc1ccc(C(=O)Nc2cccc(C(F)(F)F)c2)cc1Nc1nc(-c2cccnc2)nc(-c2cccnc2)n1 [@6, 3-((4,6-Di(pyridin-3-yl)-1,3,5-triazin-2-yl)amino)-4-methyl-N-(3-(trifluoromethyl)phenyl)benzamide]",pKd,EphA2 [1],7.62
"Cc1ccc(C(=O)Nc2cccc(C(F)(F)F)c2)cc1Nc1nc(-c2cccnc2)nc2c1cnn2C [NVP, NVP-BHG712]",reduction of proliferation,[4],> 50%
"Cc1ccc(C(=O)Nc2cccc(Cl)c2)cc1Nc1nc(N2CC[C@H](O)C2)nc(-n2ccnc2)n1 [@13, (S)-N-(3-chlorophenyl)-3-((4-(3-hydroxypyrrolidin-1-yl)-6-(1H-imidazol-1-yl)-1,3,5-triazin-2-yl)amino)-4-methylbenzamide]",pKd,EphA2 [1],7.01
Cc1cc(C(=O)Nc2cccc(C(F)(F)F)c2)ccc1Nc1nc(N2CCCC2)nc(-n2ccnc2)n1 [@9],pKd,EphA2 [1],7.47
"Fc1ccc(CNc2ncnc3ccc(F)cc23)cc1 [Spautin, spautin-1]",LC3-related puncta/cell increased by NVP and NVP-Iso,LC3; spautin 4-hour pretreatment,reduces this drug-effect
same,anti-proliferative effects of NVP and NVP-Iso in colorectal cancer cells,HT-29 cells,mitigated the anti-proliferative
same,LC3B accumulation in cells treated with 1 μM NVP or NVP-Iso,LC3B [2],reduced accumulation of LC3B
same,LC3B accumulation induced by NVP and NVP-Iso in SW620 cells,LC3B [5],reduces this LC3B accumulation
Cc1cc(C(=O)Nc2cccc(C(F)(F)F)c2)ccc1Nc1nc(-c2cnccn2)nc2nn(C)cc12 [@7],pKd,EphA2 [1],~5.54
"Cc1ccc(C(=O)Nc2cccc(C(F)(F)F)c2)cc1Nc1nc(N2CCOCC2)nc(-n2ccnc2)n1 [@10, 3-((4-(1H-imidazol-1-yl)-6-morpholino-1,3,5-triazin-2-yl)amino)-4-methyl-N-(3-(trifluoromethyl)phenyl)benzamide]",LC3-related autophagy puncta,LC3; 72 hours,also induced LC3B-related puncta
same,reduction of HUVECs proliferation,HUVEC,moderately inhibitory
same,reduction of EphB2 phosphorylation,EphB2,marginal reduction
same,reduction of MG63 cell proliferation,MG63,moderately inhibitory
same,pKd,EphA2 [1],6.72
same,reduction of EphA2 phosphorylation,EphA2 [3],marginal reduction
same,reduction of EphB4 phosphorylation,EphB4,marginal reduction
Cn1cnc(N)c2ncnc1-2 [3-Methyladenine],anti-proliferative effects of NVP and NVP-Iso in colorectal cancer cells,HT-29 cells,mitigated the anti-proliferative
same,LC3B accumulation in cells treated with 1 μM NVP or NVP-Iso,LC3B [2],reduced accumulation of LC3B
same,LC3B accumulation induced by NVP and NVP-Iso in SW620 cells,LC3B [5],reduces this LC3B accumulation

# From patent publication US12486270B2, “Receptor tyrosine kinase inhibitors for treatment of protein kinase modulation-responsive disease or disorder” (THE UNITED STATES OF AMERICA, as represented by the …, priority 2019, dated 2025)
